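The compound was tested at five concentrations on cells cultured in 96-well plates, with a 48-hour exposure period. Here, GI50 denotes the concentration required for 50% inhibition of growth. TGI denotes the concentration required for complete inhibition of growth.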
Tests used:
Assay in all cases: NCI anticancer screen, dose series, 48 h
CAKI-1 renal = test system: CAKI-1 renal
COLO 205 colon = test system: COLO 205 colon
HCT-15 colon = test system: HCT-15 colon
IGROV1 ovarian = test system: IGROV1 ovarian
NCI-H226 lung = test system: NCI-H226 lung
PC-3 prostate = test system: PC-3 prostate
SF-268 CNS = test system: SF-268 CNS
SF-539 CNS = test system: SF-539 CNS
SW-620 colon = test system: SW-620 colon
U251 CNS = test system: U251 CNS

Compound | GI50 (CAKI-1 renal) [µM] | GI50 (COLO 205 colon) [µM] | TGI (COLO 205 colon) [µM] | GI50 (HCT-15 colon) [µM] | TGI (HCT-15 colon) [µM] | GI50 (IGROV1 ovarian) [µM] | TGI (IGROV1 ovarian) [µM] | GI50 (NCI-H226 lung) [µM] | TGI (NCI-H226 lung) [µM] | GI50 (PC-3 prostate) [µM] | TGI (PC-3 prostate) [µM] | GI50 (SF-268 CNS) [µM] | TGI (SF-268 CNS) [µM] | GI50 (SF-539 CNS) [µM] | TGI (SF-539 CNS) [µM] | GI50 (SW-620 colon) [µM] | TGI (SW-620 colon) [µM] | GI50 (U251 CNS) [µM] | TGI (U251 CNS) [µM] | TGI (CAKI-1 renal) [µM]
COc1cc[nH]c1/C=C1\C(=O)Nc2ccc(F)c(C#CC3(O)CCOCC3)c21 | 0.011 | 0.408 | 1.13 | 0.481 | > 15.3 | 0.86 | > 7.18 | 0.498 | 2.2 | 0.669 | 6.52 | 0.714 | 2.03 | 0.489 | 1.03 | 0.619 | > 8.38 | 0.519 | 5.43 | –
COc1cc(C2C3=C(COC3=O)N(CCO)c3cc4c(cc32)CCC4)cc(OC)c1O (configuration not stated) | 0.508 | 0.229 | 2.16 | 1.09 | > 32.5 | 0.159 | 11.4 | 3.75 | > 32.5 | 0.203 | > 32.5 | 0.182 | > 32.5 | 0.136 | > 32.5 | 0.121 | > 32.5 | 0.145 | > 32.5 | > 26.3
NC(Cc1nn[nH]n1)C(=O)O (configuration not stated) | – | – | > 100 | – | > 100 | – | > 100 | – | > 100 | – | > 100 | – | > 100 | – | > 100 | – | > 100 | – | > 100 | > 100
CCOC(=O)c1[nH]c2c(c1C)-c1[nH]c(=O)c(S(=O)(=O)c3ccccc3)cc1SC2 | 54.1 | 22.5 | 46.4 | > 100 | > 100 | 21.3 | > 100 | 64.4 | > 100 | 17.7 | > 100 | 34.5 | > 100 | 30.6 | > 100 | 57.9 | > 100 | 31.1 | > 100 | > 100
COC(=O)c1cc(Nc2ccc(O)c3c2C(=O)c2c([N+](=O)[O-])ccc(O)c2C3=O)cc(C(=O)OC)c1 | 77.1 | 2.38 | 5.56 | 2.77 | > 100 | 26.9 | > 100 | 20.1 | > 100 | 13.5 | > 100 | 7.97 | > 100 | 60 | > 100 | 3.3 | > 100 | 25.7 | > 100 | > 100
Cc1cc(CS(=O)(=O)/C=C/c2ccccc2[N+](=O)[O-])c(CS(=O)(=O)/C=C/c2ccccc2[N+](=O)[O-])cc1C | – | – | > 100 | – | > 100 | – | > 100 | – | 59.4 | – | > 100 | – | > 100 | – | 35.9 | – | > 100 | – | 71.3 | > 100
C/C(=C(/c1ccc(O)cc1)c1ccc(OCCN2CCCC2)cc1)c1ccccc1 | 3.02 | 1.7 | 3.38 | 1.81 | 4.64 | 6.8 | 27 | 11.3 | 29.8 | 4.28 | 14.7 | 5.58 | 20.7 | 1.81 | 3.76 | 2.28 | 5.17 | 2.24 | 5.49 | 13.9
CC1(CC(=O)O)OC2CCCCCC2O1 (configuration not stated) (tested in a mixture with another compound) | – | – | > 100 | – | > 100 | – | > 100 | – | > 100 | – | > 100 | – | > 100 | – | > 100 | – | > 100 | – | > 100 | > 100
COc1c(O)c(OC)c(C(=O)/C=C/c2ccccc2)c(O)c1OC | – | – | > 100 | – | > 100 | – | > 100 | – | > 100 | – | > 100 | – | > 100 | – | 86.7 | – | 66.2 | – | > 100 | > 100
COc1ccccc1C(=O)c1cnc(NC2CCN(S(C)(=O)=O)CC2)nc1N | 5.84 | 4.37 | > 15.4 | 6.28 | > 25 | 8.05 | > 25 | 4.62 | > 23.1 | 3.48 | > 25 | 7.35 | > 25 | 4.97 | 15.2 | 4.33 | > 25 | 4.06 | > 25 | > 25
COc1ccc2nc3ccc(OC)cc3c(SCCCN)c2c1 | 9.79 | 1.42 | 2.97 | 3.17 | 20.2 | 8.46 | 27.2 | 19.2 | 65.7 | 1.71 | 4.68 | 4.67 | 14.5 | 13.7 | 26.8 | 1.44 | 3.15 | 9.09 | > 67.3 | 26
COc1cc(C(c2cc3c(cc2O)OCO3)N2CCCC2)cc(OC)c1OC (configuration not stated) | – | – | 26.5 | – | 29.2 | – | 27.8 | – | 33.8 | – | 34.7 | – | – | – | – | – | > 100 | – | 37.8 | 27
O=C(OCc1ccccc1CN1CCOCC1)c1ccc(Br)cc1 | – | – | > 100 | – | > 100 | – | > 100 | – | > 100 | – | > 100 | – | > 100 | – | > 100 | – | > 100 | – | > 100 | –
CN1CCCC1c1cccnc1.O=C(O)c1ccccc1O.O=C([O-])c1ccccc1[OH2+].O=C([O-])c1ccccc1[OH2+].O=C([O-])c1ccccc1[OH2+].[Mn+2] (configuration not stated) | > 100 | > 100 | > 100 | > 100 | > 100 | 97.7 | > 100 | > 100 | > 100 | 95.5 | > 100 | 22.3 | 73.4 | – | – | 42.4 | > 100 | > 100 | > 100 | > 100
N#CC1c2ccccc2-c2ccccc2N1C(=O)c1ccccc1 (configuration not stated) | – | 1.56 | 3.67 | 1.38 | > 100 | 2.66 | 7.01 | 3.11 | > 100 | 6.86 | > 100 | 3.03 | 23.4 | 2.29 | 7.05 | 0.585 | > 100 | 2.68 | > 46.7 | –

From PubChem BioAssay (NCI)
